# Assay results: patent US8173788B2, “Peptide having ability to activate cancer-related gene” (priority 2005, dated 2012)
# Where no end group is shown, it is not given here.
# Key:
# cancer-related gene = assay: DNA chip analysis of cancer-related gene expression after treatment with the HPLC-purified peptide (Table 1); format: cell-based, human
# Protocol: (§1) In this diagnosis method, cells or tissues of interest are treated with the peptide of the present invention as in the above-mentioned diagnosis method 1; thus the same specimen as in the diagnosis method 1 can be used. However, in this diagnosis method, the reverse transcription is conducted to generate a cDNA (first-strand cDNA) pool, which is complementary to the mRNA, by using total mRNA extracted from the cells or tissues treated with the peptide as a template and using oligo-dT primer having T7 RNA polymerase promoter region as a reverse primer. Then, after the second-strand cDNA synthesis, in vitro transcription (IVT) was conducted using T7 RNA polymerase and biotinylated rNTPs at 37° C. for 14 hr to yield biotin-labeled cRNA. The amount of the cRNA is measured with a spectrophotometer to confirm that at least […] of cRNA can be yielded.
# (§2) The diagnosis method further includes processes for bringing this cRNA labeled with fluorescence dye or the like into contact with cDNA of a cancer-related gene which is immobilized on a plate for hybridization and for measuring the fluorescence intensity.
# (§3) Thus, on the basis of the expression condition of a cancer-related gene, a tendency of canceration or malignancy of cancer can be determined.
# (§4) An increase or decrease in the expression amount of a cancer-related gene is determined by comparing the expression level in a control. The cells and tissues used as the control are the same as those used in the diagnosis method 1.
# (§5) Tables 1 and 2 show examples of cancer-related genes of which expression is increased and immune system genes of which expression is increased or decreased by the treatment with the peptide (HPLC-purified peptide) derived from cell membrane surfaces of human squamous-cell carcinoma cells UTC-8 (Deposition No.: FERM BP-08611, which is deposited with International Patent Organism Depositary, National Institute of Advanced Industrial Science and Technology).
# (§6) The present inventor has verified the validity of this diagnosis method using 55000 cancer-related genes. When such a great number of cancer-related genes are used, DNA chip technology is preferably used. In the DNA chip technology, each DNA of the cancer-related genes is immobilized so as to be arrayed on a slide; the above-mentioned labeled cRNA solution is dropped into the slide; the cRNA which is not hybridized is removed by washing; and fluorescence intensity of each gene position is detected by a scanner. The results are compared with the result which is obtained by conducting the same process using the above-mentioned control solution. Thus, cancer-related genes of which expression is increased or decreased when cells or tissues are treated with the peptide of the present invention can be exhaustively analyzed.
# immune system gene = assay: DNA chip analysis of immune system gene expression after treatment with the HPLC-purified peptide (Table 2); format: cell-based, human
# Protocol: as §1, §2, §3, §4, §5, §6
sequence,measurement,setting,value
"QPQFGRRMESK [HPLC-purified peptide, peptide (HPLC-purified peptide) derived from cell membrane surfaces of human squamous-cell carcinoma cells UTC-8]",Fold Change,cancer-related gene; gene AF040963 MXD4,2.357
same,Fold Change,cancer-related gene; gene D16431 HDGF,3.596
same,Fold Change,cancer-related gene; gene D26120 splicing factor 1,2.833
same,Fold Change,"cancer-related gene; gene K03218 SRC, v-src sarcoma viral oncogene homolog",3.912
same,Fold Change,cancer-related gene; gene M13150 MAS1,2.07
same,Fold Change,cancer-related gene; gene M32977 VEGF,2.457
same,Fold Change,cancer-related gene; gene M60119 HIVEP2,2.205
same,Fold Change,cancer-related gene; gene M62829 EGR1,2.105
same,Fold Change,cancer-related gene; gene M83221 RELB,2.351
same,Fold Change,cancer-related gene; gene M95712 BRAF,3.034
same,Fold Change,cancer-related gene; gene NM_000753 PDE3B,2.741
same,Fold Change,cancer-related gene; gene NM_001201 BMP3,3.736
same,Fold Change,cancer-related gene; gene NM_001402 EEF1A1,2.405
same,Fold Change,cancer-related gene; gene NM_001419 ELAVL1,2.95
same,Fold Change,cancer-related gene; gene NM_001511 CXCL1,2.477
same,Fold Change,cancer-related gene; gene NM_001570 IRAK2,2.24
same,Fold Change,cancer-related gene; gene NM_001665 ARHG,2.111
same,Fold Change,cancer-related gene; gene NM_002357 MAD,2.397
same,Fold Change,cancer-related gene; gene NM_002613 PDPK1,2.866
same,Fold Change,cancer-related gene; gene NM_002712 PPP1R7,2.697
same,Fold Change,cancer-related gene; gene NM_003017 SFRS3,2.742
same,Fold Change,cancer-related gene; gene NM_003685 KHSRP,2.04
same,Fold Change,cancer-related gene; gene NM_004204 PIGQ,2.756
same,Fold Change,"cancer-related gene; gene NM_004218 RAB11B, member RAS oncogene family",2.102
same,Fold Change,cancer-related gene; gene NM_004723 ARHGEF2,2.209
same,Fold Change,cancer-related gene; gene NM_004906 WTAP,2.544
same,Fold Change,cancer-related gene; gene NM_005207 CRKL,2.497
same,Fold Change,cancer-related gene; gene NM_005524 HES1,2.395
same,Fold Change,"cancer-related gene; gene NM_005730 CTDSP2, conserved gene amplified in osteosarcoma",2.387
same,Fold Change,cancer-related gene; gene NM_005850 SF3B4,3.023
same,Fold Change,cancer-related gene; gene NM_005937 MLLT6,2.996
same,Fold Change,cancer-related gene; gene NM_006191 PA2G4,2.002
same,Fold Change,cancer-related gene; gene NM_006318 putative glialblastoma cell differentiation-related,2.098
same,Fold Change,cancer-related gene; gene NM_006694 JTB,2.019
same,Fold Change,"cancer-related gene; gene NM_006716 ASK, activator of S phase kinase",2.23
same,Fold Change,"cancer-related gene; gene NM_006842 splicing factor 3b, subunit 2, 145 kDa",2.245
same,Fold Change,cancer-related gene; gene NM_007040 E1B-AP5,2.433
same,Fold Change,cancer-related gene; gene NM_007279 U2AF2,2.494
same,Fold Change,cancer-related gene; gene NM_012103 AUP1,2.46
same,Fold Change,cancer-related gene; gene NM_014308 P101-PI3K,2.849
same,Fold Change,cancer-related gene; gene NM_015714 G0S2,2.481
same,Fold Change,cancer-related gene; gene NM_016263 FZR1,2.466
same,Fold Change,cancer-related gene; gene U33819 MAZ,2.093
same,Fold Change,cancer-related gene; gene X03663 CSF1R,2.781
same,Fold Change,cancer-related gene; gene X54936 PGF,3.576
same,Fold Change,cancer-related gene; gene X61498 NFKB2,2.833
same,Fold Change,cancer-related gene; gene X78710 MTF1,2.001
same,TDP,immune system gene; enhanced gene D10202 platelet-activating factor receptor,1.506
same,TDP,immune system gene; enhanced gene J04130 chemokine (C-C motif) ligand 4,7.341
same,TDP,"immune system gene; enhanced gene K02770 interleukin 1, beta",11.69
same,TDP,"immune system gene; enhanced gene NM_000173 glycoprotein Ib (platelet), alpha polypeptide",1.529
same,TDP,"immune system gene; enhanced gene NM_000211 integrin, beta 2",3.326
same,TDP,"immune system gene; enhanced gene NM_001733 complement component 1, r subcomponent",1.543
same,TDP,"immune system gene; enhanced gene NM_002000 Fc fragment of IgA, receptor for",1.871
same,TDP,immune system gene; enhanced gene NM_002969 mitogen-activated protein kinase 12,1.53
same,TDP,immune system gene; enhanced gene NM_002983 chemokine (C-C motif) ligand 3,1.542
same,TDP,immune system gene; enhanced gene NM_003199 transcription factor 4,1.621
same,TDP,"immune system gene; enhanced gene NM_006186 nuclear receptor subfamily 4, group A, member 2",2.06
same,TDP,immune system gene; enhanced gene X03663 colony stimulating factor 1 receptor,2.781
same,TDP,"immune system gene; suppressed gene K01171 major histocompatibility complex, class II, DR alpha",0.319
same,TDP,"immune system gene; suppressed gene NM_000397 cytochrome b-245, beta polypeptide",0.631
same,TDP,immune system gene; suppressed gene NM_001311 cysteine-rich protein 1 (intestinal),0.561
same,TDP,immune system gene; suppressed gene NM_001776 ectonucleoside triphosphate diphosphohydrolase 1,0.646
same,TDP,immune system gene; suppressed gene NM_001783 CD79A antigen,0.4
same,TDP,"immune system gene; suppressed gene NM_002118 major histocompatibility complex, class II, DM beta",0.335
same,TDP,"immune system gene; suppressed gene NM_002121 major histocompatibility complex, class II, DP beta 1",0.633
same,TDP,"immune system gene; suppressed gene NM_002123 major histocompatibility complex, class II, DQ beta 1",0.328
same,TDP,"immune system gene; suppressed gene NM_002124 major histocompatibility complex, class II, DR beta 1",0.502
same,TDP,"immune system gene; suppressed gene NM_002258 killer cell lectin-like receptor subfamily B, member 1",0.653
same,TDP,"immune system gene; suppressed gene NM_002260 killer cell lectin-like receptor subfamily C, member 2",0.603
same,TDP,"immune system gene; suppressed gene NM_003891 protein Z, vitamin K-dependent plasma glycoprotein",0.618
same,TDP,"immune system gene; suppressed gene NM_004106 Fc fragment of IgE, high affinity I, receptor for, gamma polypeptide",0.382
same,TDP,"immune system gene; suppressed gene NM_004133 hepatocyte nuclear factor 4, gamma",0.635
same,TDP,immune system gene; suppressed gene NM_004528 microsomal glutathione S-transferase 3,0.561
same,TDP,"immune system gene; suppressed gene NM_004636 sema domain, (semaphorin) 3B",0.459
same,TDP,immune system gene; suppressed gene NM_004750 cytokine receptor-like factor 1,0.626
same,TDP,immune system gene; suppressed gene NM_005545 immunoglobulin superfamily containing leucine-rich repeat,0.579
same,TDP,"immune system gene; suppressed gene NM_006120 major histocompatibility complex, class II, DM alpha",0.298
same,TDP,"immune system gene; suppressed gene NM_006864 leukocyte immunoglobulin-like receptor, subfamily B, member 3",0.662
same,TDP,immune system gene; suppressed gene NM_007052 NADPH oxidase 1,0.662
same,TDP,immune system gene; suppressed gene NM_014442 sialic acid binding Ig-like lectin 8,0.641
same,TDP,"immune system gene; suppressed gene NM_016523 killer cell lectin-like receptor subfamily F, member 1",0.644
same,TDP,"immune system gene; suppressed gene NM_018661 defensin, beta 103",0.528
same,TDP,immune system gene; suppressed gene U77604 microsomal glutathione S-transferase 2,0.349
same,TDP,"immune system gene; suppressed gene Y00815 protein tyrosine phosphatase, receptor type, F",0.475
